Tests used:
[1] = tested on: CD244 (Cluster of Differentiation 244); assay: RNA microarray, CD244 expression in PBMCs (aging genes); type: cell-based, human; conditions: final concentration of 5%, 24 hours, normalized to control group
Procedure: (§1) PBMCs are immunocytes present in the peripheral blood. In these preparation examples, PBMCs were isolated from the peripheral blood obtained from healthy donors.
(§2) B. Treatments Applied to PBMCs • (b1) 1 mL X-VIVO 10 medium was added into each well of a 24-well plate, and then PBMCs obtained from step A were seeded into the medium with a density of 1×10^6 to 2×10^6/well; and • (b2) PBMCs obtained from step b1 were separated into two groups for the following treatments: • Control group: the PBMCs-containing medium was directly incubated in a 37° C. constant temperature incubator with 5% CO2 (i.e., PBMCs were cultured in a medium that was free of the compound of formula (I)) for 24 hours; • Experimental group: the compound of formula (I) was added to the PBMCs-containing medium until a final concentration of 5%, and then the medium was incubated in a 37° C. constant temperature incubator with 5% CO2 for 24 hours. […]
(§3) To know whether the compound of formula (I) can delay the aging of immunocytes, after determining mRNA expression levels via the above Preparation example C, the expression levels of genes representing the old stage of immunocytes (including CD244, ITGA4, and KLRG1) of the control and experimental group were recorded respectively. […]

CTSL (Cathepsin L) = assay: RNA microarray, CTSL expression in PBMCs (MHC-I pathway); type: cell-based, human; conditions: final concentration of 5%, 24 hours, normalized to control group
Procedure: as §1, §2
(§4) To know whether the compound of formula (I) can promote the activation of the MHC-I pathway, after determining mRNA expression levels via the above Preparation example C, the expression levels of genes relating to MHC-I pathway (including CTSL, HSPA1B, and HSPA2) of the control and experimental group were recorded respectively. […]

[2] = tested on: ITGA4 (integrin subunit alpha 4); assay: RNA microarray, ITGA4 expression in PBMCs (aging genes); type: cell-based, human; conditions: final concentration of 5%, 24 hours, normalized to control group
Procedure: as §1, §2, §3

[3] = tested on: HLA-DMB (human leukocyte antigen-DMB); assay: RNA microarray, HLA-DMB expression in PBMCs (MHC-II pathway); type: cell-based; conditions: final concentration of 5%, 24 hours, normalized to control group
Procedure: as §1, §2
as §4, with “inhibit” for “promote”, “MHC-II” for “MHC-I”, “CD4, CD74, CIITA, HLA-DMB, HLA-DPA1, HLA-DPB1, HLA-DQB1, HLA-DRA,” for “CTSL, HSPA1B,”, “LGMN)” for “HSPA2)”

FOXO3 (forkhead box O3) = assay: RNA microarray, FOXO3 expression in PBMCs (genes delaying aging of immunocytes); type: cell-based, human; conditions: final concentration of 5%, 24 hours, compared to control group
Procedure: as §1, §2
as §3, with “helpful for delaying” for “representing”, “aging” for “old stage”, “FOXO3, SOD2,” for “CD244, ITGA4,”, “TNFRSF14)” for “KLRG1)”

HLA-DQB1 = assay: RNA microarray, HLA-DQB1 expression in PBMCs (MHC-II pathway); type: cell-based, human; conditions: final concentration of 5%, 24 hours, normalized to control group
Procedure: as §1, §2
as §4, with “inhibit” for “promote”, “MHC-II” for “MHC-I”, “CD4, CD74, CIITA, HLA-DMB, HLA-DPA1, HLA-DPB1, HLA-DQB1, HLA-DRA,” for “CTSL, HSPA1B,”, “LGMN)” for “HSPA2)”

[4] = tested on: TNF-α (tumor necrosis factor alpha); assay: RNA microarray, TNF-α expression in PBMCs (macrophage activation); type: cell-based, human; conditions: final concentration of 5%, 24 hours, compared to control group
Procedure: as §1, §2
as §4, with “macrophages,” for “the MHC-I pathway,”, “macrophage activation” for “MHC-I pathway”, “IL-1B” for “CTSL, HSPA1B,”, “TNF-α)” for “HSPA2)”

[5] = tested on: SOD2 (Superoxide dismutase 2); assay: RNA microarray, SOD2 expression in PBMCs (genes delaying aging of immunocytes); type: cell-based, human; conditions: final concentration of 5%, 24 hours, normalized to control group
Procedure: as §1, §2
as §3, with “helpful for delaying” for “representing”, “aging” for “old stage”, “FOXO3, SOD2,” for “CD244, ITGA4,”, “TNFRSF14)” for “KLRG1)”

[6] = tested on: CD4 (Cluster of Differentiation 4); assay: RNA microarray, CD4 expression in PBMCs (MHC-II pathway); type: cell-based, human; conditions: final concentration of 5%, 24 hours, normalized to control group
Procedure: as §1, §2
as §4, with “inhibit” for “promote”, “MHC-II” for “MHC-I”, “CD4, CD74, CIITA, HLA-DMB, HLA-DPA1, HLA-DPB1, HLA-DQB1, HLA-DRA,” for “CTSL, HSPA1B,”, “LGMN)” for “HSPA2)”

HLA-DRA = assay: RNA microarray, HLA-DRA expression in PBMCs (MHC-II pathway); type: cell-based, human; conditions: final concentration of 5%, 24 hours, normalized to control group
Procedure: as §1, §2
as §4, with “inhibit” for “promote”, “MHC-II” for “MHC-I”, “CD4, CD74, CIITA, HLA-DMB, HLA-DPA1, HLA-DPB1, HLA-DQB1, HLA-DRA,” for “CTSL, HSPA1B,”, “LGMN)” for “HSPA2)”

[7] = tested on: HSPA1B (heat shock protein family A member 1B); assay: RNA microarray, HSPA1B expression in PBMCs (MHC-I pathway); type: cell-based, human; conditions: final concentration of 5%, 24 hours, compared to control group
Procedure: as §1, §2, §4

LGMN (legumain) = assay: RNA microarray, LGMN expression in PBMCs (MHC-II pathway); type: cell-based, human; conditions: final concentration of 5%, 24 hours, normalized to control group
Procedure: as §1, §2
as §4, with “inhibit” for “promote”, “MHC-II” for “MHC-I”, “CD4, CD74, CIITA, HLA-DMB, HLA-DPA1, HLA-DPB1, HLA-DQB1, HLA-DRA,” for “CTSL, HSPA1B,”, “LGMN)” for “HSPA2)”

[8] = tested on: CD74 (Cluster of Differentiation 74); assay: RNA microarray, CD74 expression in PBMCs (MHC-II pathway); type: cell-based, human; conditions: final concentration of 5%, 24 hours, normalized to control group
Procedure: as §1, §2
as §4, with “inhibit” for “promote”, “MHC-II” for “MHC-I”, “CD4, CD74, CIITA, HLA-DMB, HLA-DPA1, HLA-DPB1, HLA-DQB1, HLA-DRA,” for “CTSL, HSPA1B,”, “LGMN)” for “HSPA2)”

[9] = tested on: TNFRSF14 (TNF superfamily, member 14); assay: RNA microarray, TNFRSF14 expression in PBMCs (genes delaying aging of immunocytes); type: cell-based, human; conditions: final concentration of 5%, 24 hours, compared to control group
Procedure: as §1, §2
as §3, with “helpful for delaying” for “representing”, “aging” for “old stage”, “FOXO3, SOD2,” for “CD244, ITGA4,”, “TNFRSF14)” for “KLRG1)”

HLA-DPB1 = assay: RNA microarray, HLA-DPB1 expression in PBMCs (MHC-II pathway); type: cell-based, human; conditions: final concentration of 5%, 24 hours, normalized to control group
Procedure: as §1, §2
as §4, with “inhibit” for “promote”, “MHC-II” for “MHC-I”, “CD4, CD74, CIITA, HLA-DMB, HLA-DPA1, HLA-DPB1, HLA-DQB1, HLA-DRA,” for “CTSL, HSPA1B,”, “LGMN)” for “HSPA2)”

HLA-DPA1 = assay: RNA microarray, HLA-DPA1 expression in PBMCs (MHC-II pathway); type: cell-based, human; conditions: final concentration of 5%, 24 hours, normalized to control group
Procedure: as §1, §2
as §4, with “inhibit” for “promote”, “MHC-II” for “MHC-I”, “CD4, CD74, CIITA, HLA-DMB, HLA-DPA1, HLA-DPB1, HLA-DQB1, HLA-DRA,” for “CTSL, HSPA1B,”, “LGMN)” for “HSPA2)”

[10] = tested on: KLRG1 (killer cell lectin-like receptor subfamily G, member 1); assay: RNA microarray, KLRG1 expression in PBMCs (aging genes); type: cell-based, human; conditions: final concentration of 5%, 24 hours, normalized to control group
Procedure: as §1, §2, §3

[11] = tested on: HSPA2 (Heat Shock Protein Family A Member 2); assay: RNA microarray, HSPA2 expression in PBMCs (MHC-I pathway); type: cell-based, human; conditions: final concentration of 5%, 24 hours, normalized to control group
Procedure: as §1, §2, §4

[12] = tested on: CIITA (Class II Major Histocompatibility Complex Transactivator); assay: RNA microarray, CIITA expression in PBMCs (MHC-II pathway); type: cell-based, human; conditions: final concentration of 5%, 24 hours, normalized to control group
Procedure: as §1, §2
as §4, with “inhibit” for “promote”, “MHC-II” for “MHC-I”, “CD4, CD74, CIITA, HLA-DMB, HLA-DPA1, HLA-DPB1, HLA-DQB1, HLA-DRA,” for “CTSL, HSPA1B,”, “LGMN)” for “HSPA2)”

[13] = tested on: IL-1B (interleukin 1 beta); assay: RNA microarray, IL-1B expression in PBMCs (macrophage activation); type: cell-based, human; conditions: final concentration of 5%, 24 hours, normalized to control group
Procedure: as §1, §2
as §4, with “macrophages,” for “the MHC-I pathway,”, “macrophage activation” for “MHC-I pathway”, “IL-1B” for “CTSL, HSPA1B,”, “TNF-α)” for “HSPA2)”

C=C1CC[C@@H](C)C2C[C@@H](O)[C@@H](C(C)C(=O)O)CC12 (some centres unmarked) [compound of formula (I)]
expression level of CD244 [1]: 0.14 times the level of the control group
expression level of CTSL (CTSL (Cathepsin L)): 3.13 times the level of the control group
expression level of ITGA4 [2]: 0.24 times the level of the control group
expression level of HLA-DMB [3]: 0.31 times the level of the control group
expression level of FOXO3 (FOXO3 (forkhead box O3)): significantly increased
expression level of HLA-DQB1 (HLA-DQB1): 0.14 times the level of the control group
expression level of TNF-α [4]: significantly increased
expression level of SOD2 [5]: 6.06 times the level of the control group
expression level of CD4 [6]: 0.47 times the level of the control group
expression level of HLA-DRA (HLA-DRA): 0.36 times the level of the control group
expression level of HSPA1B [7]: significantly increased
expression level of LGMN (LGMN (legumain)): 0.32 times the level of the control group
expression level of CD74 [8]: 0.18 times the level of the control group
expression level of TNFRSF14 [9]: significantly increased
expression level of HLA-DPB1 (HLA-DPB1): 0.23 times the level of the control group
expression level of HLA-DPA1 (HLA-DPA1): 0.23 times the level of the control group
expression level of KLRG1 [10]: 0.25 times the level of the control group
expression level of HSPA2 [11]: 4.61 times the level of the control group
expression level of CIITA [12]: 0.40 times the level of the control group
expression level of IL-1B [13]: 16.32 times the level of the control group

— patent US10034844B2, “Method for enhancing immunity, inhibiting allergic reaction, and/or inhibiting autoimmune reaction” (TCI CO., LTD., priority 2016, dated 2018)
